For this experiment, the target named is Beta-secretase 1 (Homo sapiens, UniProt P56817). The experiment can be described thus: Enzyme Inhibition Measurements. The conditions noted are these: pH 4.5; 37 °C.

Each structure is given as a SMILES string.

Sequence of Beta-secretase 1 (P56817 whole entry): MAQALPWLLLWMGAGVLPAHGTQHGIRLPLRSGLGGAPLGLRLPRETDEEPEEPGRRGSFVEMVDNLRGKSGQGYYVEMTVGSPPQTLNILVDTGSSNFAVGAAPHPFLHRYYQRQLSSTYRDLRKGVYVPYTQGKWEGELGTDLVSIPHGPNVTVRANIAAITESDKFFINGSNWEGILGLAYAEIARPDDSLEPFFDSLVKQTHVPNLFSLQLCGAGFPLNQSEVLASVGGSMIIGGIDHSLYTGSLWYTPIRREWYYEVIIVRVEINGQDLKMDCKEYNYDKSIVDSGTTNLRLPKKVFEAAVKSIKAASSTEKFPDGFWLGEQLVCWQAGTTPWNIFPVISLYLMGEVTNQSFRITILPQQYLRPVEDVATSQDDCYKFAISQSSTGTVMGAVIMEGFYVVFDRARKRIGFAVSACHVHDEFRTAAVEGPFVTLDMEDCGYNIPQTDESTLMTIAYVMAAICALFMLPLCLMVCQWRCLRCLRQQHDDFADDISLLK
Description: Enzyme activities were assayed by monitoring the hydrolysis of substrate in the presence or absence of inhibitor compounds. The hydrolysis was recorded as the increase in fluorescence intensity over a 10 min time period. […] The Ki was calculated by using Ki = IC50/ (1 + [S]/Km), and a Km value determined according to Michaelis-Menten.

`C=CCNC(=O)C[C@H](NC(=O)[C@@H](NC(=O)OCC=C)C(C)C)C(=O)N[C@@H](CC(C)C)[C@@H](O)C[C@@H](C)C(=O)N[C@H](C(=O)NCc1ccccc1)C(C)C` [prop-2-en-1-yl N-[(1S)-1-{[(1S)-1-{[(1R,3S,4S)-1-{[(1S)-1-(benzylcarbamoyl)-2-methylpropyl]carbamoyl}-3-hydroxy-1,6-dimethylheptan-4-yl]carbamoyl}-2-(prop-2-en-1-ylcarbamoyl)ethyl]carbamoyl}-2-methylpropyl]carbamate] gave a Ki of 26.6 nM. In other words, the double-digit nanomolar range.

What is called Ki is a measure of affinity in units of concentration, obtained from inhibition or displacement. Higher therefore signals lower affinity.

For the origin of these results see BindingDB's records for doi:10.1016/j.bmcl.2004.10.084 (University of Illinois At Chicago, 2005).
